Blank lines part the entries; values can stand above or below the compound they belong to.
Legend:
SGLT1 [1] = target: T1, SGLT1 (Homo sapiens, UniProt P13866); experiment: SGLT1 Inhibitor Activity Experiment 1; type: cell-based
T1 sequence (P13866 1-664): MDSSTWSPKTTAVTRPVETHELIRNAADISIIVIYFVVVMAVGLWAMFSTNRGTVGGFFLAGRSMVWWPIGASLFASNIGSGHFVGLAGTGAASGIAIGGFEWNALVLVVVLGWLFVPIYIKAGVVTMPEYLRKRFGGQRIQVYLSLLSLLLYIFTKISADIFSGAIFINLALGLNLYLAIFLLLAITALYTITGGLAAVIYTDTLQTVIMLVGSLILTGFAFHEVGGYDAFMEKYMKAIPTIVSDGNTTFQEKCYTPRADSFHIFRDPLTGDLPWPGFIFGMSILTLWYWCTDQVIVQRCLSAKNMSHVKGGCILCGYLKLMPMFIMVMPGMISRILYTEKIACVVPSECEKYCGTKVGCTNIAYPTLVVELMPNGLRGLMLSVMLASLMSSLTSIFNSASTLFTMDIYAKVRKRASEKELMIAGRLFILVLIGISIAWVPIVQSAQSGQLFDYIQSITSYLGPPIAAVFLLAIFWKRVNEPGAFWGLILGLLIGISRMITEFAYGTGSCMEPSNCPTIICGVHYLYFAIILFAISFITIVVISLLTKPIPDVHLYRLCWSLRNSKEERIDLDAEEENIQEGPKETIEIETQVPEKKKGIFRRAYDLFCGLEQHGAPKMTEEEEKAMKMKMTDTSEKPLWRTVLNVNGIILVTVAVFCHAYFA
Procedure: The inhibitory activity of SGLT1 was tested with reference to the method described in document (Journal of Medicinal Chemistry 2017, 60, 710-721, Discovery of LX2761, a Sodium-Dependent Glucose Cotransporter 1 (SGLT1) Inhibitor Restricted to the Intestinal Lumen, for the Treatment of Diabetes).

blood glucose [2] = experiment: Oral glucose tolerance test (OGTT) after continuous administration in rats for 14 days; type: in vivo, SD rats; conditions: 0.012 mg/kg oral gavage, OGTT on day 15
Procedure: • Experimental animals: SPF male SD rats; • Compound preparation: an appropriate amount of the compounds of Example 2, Example 3, and Example 5 were weighed, and uniformly suspended with an appropriate amount of 0.5% CMC-Na solution; • Preparation of glucose solution: an appropriate amount of glucose powder was weighed and dissolved with an appropriate amount of pure water; • Dosage and method of administration: 0.012 mg/kg, oral gavage.
(§1) Experimental process: the animals were fed a normal diet with consecutive administration for 14 days, and the glucose tolerance test was performed on day 15, blood glucose was detected before administration (−30 min), before giving glucose (0 min), and 10, 30, 60, and 120 min after giving glucose solution, and the defecation of animals was observed.

[3] = Observation of defecation (loose stools) in rats during OGTT study; type: in vivo, SD rats; conditions: 0.012 mg/kg oral gavage, within 48 hours before and after the experiment
Procedure: as §1

SGLT1 [4] = target: T1, SGLT1; experiment: HSGLT1 inhibitor activity experiment: 2-NBDG uptake by HEK293 cells stably expressing human SGLT1; type: cell-based; parameters: expressed in transfected cells; host or cells: HEK293; conditions: for IC50: 2-NBDG uptake, HEK293 stably expressing human SGLT1, read-out: SGLT1 Inhibitory Activity
Procedure: Inhibitory activity testing was performed with reference to a similar method described in document (Acta Pharmaceutica Sinica 2017, 52(6):897-903; Nature Protocols (2007), 2(3), 753-762; Journal of Biochemical and Biophysical Methods (2005), 64(3), 207-215; Diabetes Technology & Therapeutics (2011), 13(7), 743-775).
In this experiment, the in vitro activity assay was evaluated using the uptake of 2-NBDG (2-Deoxy-2-[(7-nitro-2,1,3-benzoxadiazol-4-yl)amino]-D-glucose, CAS NO: 186689-07-6) by human embryonic kidney epithelial cells (HEK293, stably expressing human SGLT1), and the SGLT1 inhibitory activity of the target compound was determined by measuring its half-maximal inhibitory concentration (IC50).
HEK293 cells that can stably express human SGLT1 gene were inoculated into a 96-well clear-bottom black plates containing DMEM medium. The cells were incubated at 37° C., 5% CO2in a cell incubator. The medium in the 96-well plate was aspirated, and the plate was treated with low-glucose serum-free DMEM medium, and washed once with non-specific uptake buffer and once with Na^+-dependent uptake buffer. Uptake buffer containing test compound was added to each well of cells, followed by uptake buffer containing 2-NBDG for glucose uptake, and the cell plate was incubated at 37° C., 5% CO2. The compounds were gradiently diluted. The uptake reaction was stopped by removing the culture medium, and after washing the cells with ice-cold uptake buffer, the washing solution was removed. The cells were lysed by adding NaOH, and the content of 2-NBDG in the cells was detected by a fluorescence microplate reader. The protein concentration of the lysate was measured by BCA method, the uptake of 2-NBDG was quantified by fluorescence intensity/protein content, and the obtained data were analyzed using GraphPad Prism to determine the median inhibitory concentration (IC50) of the compound to be tested.

[5] = Pharmacokinetic study in rats; type: in vivo, SD rats; conditions: 10 mg/kg, oral gavage; for bioavailability: male, SD, rat, plasma, po, read-out: Absolute Bioavailability(F %)
Procedure: • Experimental animals: SPF male SD rats; • Dosage and method of administration: 10 mg/kg, oral gavage.
Research compound: Dapagliflozin, the compound of Example 5, the compound of Example 7, the compound of Comparative Example 6; • Test method: Before administration (0), and 1, 4, 8, and 24 hours after administration, 0.2 ml of blood was collected from orbital venous plexus, anticoagulated with heparin, and plasma was collected.

rat feces suspension = experiment: Intestinal microbial metabolic stability in rat feces suspension; type: in vitro ADME; conditions: for Remaining percentage of compound: rat feces suspension, 37 C
Procedure: Methods: The collected rat feces were processed, and the feces suspension was obtained for the determination of metabolic stability. The mixed reaction system consisting of the rat feces suspension and the compound of Example 5 was incubated at 37 C for 3 h, 6 h, 12 h and 24 h. The compound of Example 5 in the incubation system was analyzed to determine the total amount of remaining compound. Wherein, “+” represents the remaining percentage being: <50%; “++” represents the remaining percentage being: 50% to 70%; “+++” represents the remaining percentage being: 70% to 90%; […].

blood glucose [6] = experiment: Oral glucose tolerance test (OGTT) after consecutive administration in mice; type: in vivo; conditions: oral gavage 5 days, OGTT on day 6
Procedure: (§2) • Experimental animals: SPF male mice; • Compound preparation: an appropriate amount of the compounds of Example 5 was weighed, and uniformly suspended with an appropriate amount of 0.5% CMC-Na solution; • Preparation of glucose solution: an appropriate amount of glucose powder was weighed and dissolved with an appropriate amount of pure water; • Administration and dosage: oral gavage; blank vehicle group, high-dose group (1.6 mg/kg), low-dose group (0.12 mg/kg).
(§3) Experimental process: • (1) The mice were fed a high-sugar diet for 6 days, and then grouped (10 mice in each group) to enter the administration stage; • (2) Example compound 5 was administered at 5:00 pm every day from day 1 to day 5, once a day, and then the animals were fed a high-sugar free diet, and the defecation of the animals was observed. • (3) On day 6, oral glucose tolerance test was performed, and glucose solution (2 g/kg) was orally administered. Blood glucose was detected before (0 min) and 10, 30, and 60 min after giving glucose solution, respectively.

[7] = Observation of defecation (loose stools) in mice, day 1 to day 5; type: in vivo
Procedure: as §2, §3

blood glucose [8] = experiment: In vivo hypoglycemic efficacy experiment combined with sitagliptin, STZ-induced type 2 diabetes mouse model; parameters: species or system Balb/C male mice
Procedure: Model establishment: SPF grade Balb/C male mice were used in this experiment, and the establishment of the type 2 diabetes mouse model was induced by intraperitoneal injection of streptozotocin (STZ) supplemented by high-fat and high-sugar diet.
Administration: normal group, model group, low-dose combined administration group (the compound of Example 5 0.02 mg/kg+sitagliptin 20 mg/kg), medium-dose combined administration group (the compound of Example 5 0.06 mg/kg+sitagliptin 20 mg/kg), high-dose combined administration group (the compound of Example 5 0.1 mg/kg+sitagliptin 20 mg/kg), sitagliptin group (20 mg/kg). The normal group and the model group were given the solvent by gavage.

[9] = Lipid solubility and water solubility compared with Example 5; type: physicochemical

- IC50 (SGLT1 [1]): < 50 nM
SMILES: C#CCN(C)CCNC(=O)C/C=C/c1ccc(Cc2cc([C@@H]3O[C@H](SC)[C@@H](O)[C@H](O)[C@H]3O)ccc2C)cc1 [Example 8]

- IC50 (SGLT1 [1]): < 50 nM
SMILES: C#CCN(C)CCNC(=O)CCOc1ccc(Cc2cc([C@@H]3O[C@H](SC)[C@@H](O)[C@H](O)[C@H]3O)ccc2C)cc1 [Example 6]

- loose stools in experimental animals [3]: no loose stools were observed
- activity of inhibiting SGLT1 (in words) (SGLT1 [4]): significant activity of inhibiting SGLT1
- IC50 (SGLT1 [4]): 0.97 nM
SMILES: CS[C@H]1O[C@@H](c2ccc(C)c(Cc3ccc(CCCC(=O)NCCN4CCN(C)CC4)cc3)c2)[C@H](O)[C@@H](O)[C@@H]1O [Example 2]
- blood sugar level of rats in OGTT (blood glucose [2]): significantly reduce the blood sugar level

- activity of inhibiting SGLT1 (in words) (SGLT1 [4]): significant activity of inhibiting SGLT1
- IC50 (SGLT1 [4]): 1.01 nM
SMILES: CS[C@H]1O[C@@H](c2ccc(C)c(Cc3ccc(CCCC(=O)NCCN(C)Cc4ccccc4)cc3)c2)[C@H](O)[C@@H](O)[C@@H]1O [Example 4]

- IC50 (SGLT1 [1]): < 50 nM
- absorption in vivo after oral administration (in words) [5]: almost no absorption in vivo
- detection in vivo after oral administration (in words) [5]: hardly detected in vivo
- bioavailability [5]: < 1.5%
SMILES: C#CCN(C)CCNC(=O)CCOCc1ccc(Cc2cc([C@@H]3O[C@H](SC)[C@@H](O)[C@H](O)[C@H]3O)ccc2C)cc1 [Example 7]

- absorption in vivo after oral administration (in words) [5]: absorbed into the blood
- bioavailability [5]: 73%
SMILES: CCOc1ccc(Cc2cc([C@@H]3O[C@H](CO)[C@@H](O)[C@H](O)[C@H]3O)ccc2Cl)cc1 [Dapagliflozin, reference compound]

- loose stools in experimental animals [3]: no loose stools were observed
- activity of inhibiting SGLT1 (in words) (SGLT1 [4]): significant activity of inhibiting SGLT1
- IC50 (SGLT1 [4]): 0.83 nM
SMILES: CS[C@H]1O[C@@H](c2ccc(C)c(Cc3ccc(CCCC(=O)NCCN4CCCCC4)cc3)c2)[C@H](O)[C@@H](O)[C@@H]1O [Example 3]
- blood sugar level of rats in OGTT (blood glucose [2]): significantly reduce the blood sugar level

- remaining compound (rat feces suspension; incubated with microorganisms in rat feces for about 24 hours): > 70%
- IC50 (SGLT1 [1]): < 50 nM
- loose stools in experimental animals [3]: no loose stools were observed
- absorption in vivo after oral administration (in words) [5]: almost no absorption in vivo
- detection in vivo after oral administration (in words) [5]: hardly detected in vivo
- bioavailability [5]: < 1.5%
- number of animals with loose stools ([7]; high dose group (1.6 mg/kg), day 1): 1 animal
- loose stools (in words) ([7]; high dose group (1.6 mg/kg), day 2 to day 5): did not have loose stools
- Statistics of loose stools in animals ([7]; high-dose group (1.6 mg/kg), Day 1, animals with loose stool/animals in group): 1/10
- Statistics of loose stools in animals ([7]; high-dose group (1.6 mg/kg), Day 2): 0/10
- Statistics of loose stools in animals ([7]; high-dose group (1.6 mg/kg), Day 3): 0/10
- Statistics of loose stools in animals ([7]; high-dose group (1.6 mg/kg), Day 4): 0/10
- Statistics of loose stools in animals ([7]; high-dose group (1.6 mg/kg), Day 5): 0/10
- Statistics of loose stools in animals ([7]; low-dose group (0.12 mg/kg), Day 1): 0/10
- Statistics of loose stools in animals ([7]; low-dose group (0.12 mg/kg), Day 2): 0/10
- Statistics of loose stools in animals ([7]; low-dose group (0.12 mg/kg), Day 3): 0/10
- Statistics of loose stools in animals ([7]; low-dose group (0.12 mg/kg), Day 4): 0/10
- Statistics of loose stools in animals ([7]; low-dose group (0.12 mg/kg), Day 5): 0/10
- loose stools (in words) ([7]; low-dose group (0.12 mg/kg), continuous administration for 5 days): did not have loose stools
- activity of inhibiting SGLT1 (in words) (SGLT1 [4]): significant activity of inhibiting SGLT1
- IC50 (SGLT1 [4]): 0.37 nM
SMILES: C#CCN(C)CCNC(=O)CCCc1ccc(Cc2cc([C@@H]3O[C@H](SC)[C@@H](O)[C@H](O)[C@H]3O)ccc2C)cc1 [Example 5]
- Remaining percentage of compound (rat feces suspension; incubation 12 h): +++ (the remaining percentage being: 70% to 90%)
- Remaining percentage of compound (rat feces suspension; incubation 24 h): +++ (the remaining percentage being: 70% to 90%)
- blood sugar level of rats in OGTT (blood glucose [2]): significantly reduce the blood sugar level
- blood glucose level of mice in OGTT (blood glucose [6]; high-dose group (1.6 mg/kg)): significantly reduce the blood glucose level
- blood glucose level of mice in OGTT (blood glucose [6]; low-dose group (0.12 mg/kg)): significantly reduce the blood glucose level
- dose-effect relationship of blood glucose reduction (blood glucose [8]; Example 5 0.02, 0.06, 0.1 mg/kg combined with sitagliptin 20 mg/kg): there is a dose-effect relationship
- blood glucose level of diabetic model animals (blood glucose [8]; Example 5 0.02, 0.06 or 0.1 mg/kg combined with sitagliptin 20 mg/kg): significantly reduce the blood glucose level

- lipid solubility relative to Example 5 [9]: better lipid solubility
SMILES: CS[C@H]1O[C@@H](c2ccc(C)c(Cc3ccc(CCCC(=O)NCCN(C)Cc4cn(C5CC5)nn4)cc3)c2)[C@H](O)[C@@H](O)[C@@H]1O
- water solubility relative to Example 5 [9]: better lipid solubility and water solubility
